Test results published in the NIST ThermoML archive (doi:10.1016/j.jct.2017.11.017).
Numbers after ± are expanded uncertainties.

Experiment: activity coefficient (dimensionless); of the first substance listed, at infinite dilution; xn = mol fraction of the nth substance listed
Details: 101.33 kPa, Liquid, Chromatography, x1 = 0

SMILES | activity coefficient (318.15 K) | activity coefficient (328.15 K) | activity coefficient (338.15 K) | activity coefficient (348.15 K) | activity coefficient (358.15 K) | activity coefficient (368.15 K) | activity coefficient (308.15 K) | activity coefficient (298.15 K)
CC#N [acetonitrile] + C[n+]1ccn(CCCO)c1.N#CN=C=[N-] | 1.19 ± 0.08 | 1.23 ± 0.08 | 1.29 ± 0.08 | 1.33 ± 0.09 | 1.37 ± 0.09 | 1.41 ± 0.09 |  | 
c1ccccc1 [benzene] + C[N+]1(CCCO)CCOCC1.N#C[N-]C#N | 6.97 ± 0.48 | 7.09 ± 0.48 | 7.2 ± 0.49 | 7.33 ± 0.5 | 7.41 ± 0.51 | 7.57 ± 0.52 |  | 
c1ccccc1 [benzene] + C[n+]1ccn(CCCO)c1.N#CN=C=[N-] | 4.41 ± 0.3 | 4.56 ± 0.31 | 4.74 ± 0.32 | 4.92 ± 0.34 | 5.08 ± 0.35 | 5.22 ± 0.36 |  | 
CCCCO [butan-1-ol] + C[N+]1(CCCO)CCOCC1.N#C[N-]C#N | 4.66 ± 0.32 | 4.5 ± 0.31 | 4.39 ± 0.3 | 4.26 ± 0.29 | 4.17 ± 0.28 | 4.08 ± 0.28 |  | 
CCCCO [butan-1-ol] + C[n+]1ccn(CCCO)c1.N#CN=C=[N-] | 2.8 ± 0.19 | 2.75 ± 0.19 | 2.73 ± 0.19 | 2.7 ± 0.18 | 2.69 ± 0.18 | 2.68 ± 0.18 |  | 
CCC(C)O (stereo unspecified) [butan-2-ol] + C[N+]1(CCCO)CCOCC1.N#C[N-]C#N | 4.46 ± 0.3 | 4.35 ± 0.3 | 4.27 ± 0.29 | 4.2 ± 0.29 | 4.15 ± 0.28 | 4.09 ± 0.28 |  | 
CCC(C)O (stereo unspecified) [butan-2-ol] + C[n+]1ccn(CCCO)c1.N#CN=C=[N-] | 2.74 ± 0.19 | 2.72 ± 0.19 | 2.72 ± 0.19 | 2.72 ± 0.19 | 2.7 ± 0.18 | 2.71 ± 0.18 |  | 
CCCC=O [butanal] + C[N+]1(CCCO)CCOCC1.N#C[N-]C#N | 4.26 ± 0.29 | 4.49 ± 0.31 | 4.74 ± 0.32 | 4.97 ± 0.34 | 5.19 ± 0.35 | 5.38 ± 0.37 |  | 
CCCC=O [butanal] + C[n+]1ccn(CCCO)c1.N#CN=C=[N-] | 2.68 ± 0.18 | 2.92 ± 0.2 | 3.19 ± 0.22 | 3.43 ± 0.23 | 3.72 ± 0.25 | 3.95 ± 0.27 |  | 
C1CCCCCC1 [cycloheptane] + C[N+]1(CCCO)CCOCC1.N#C[N-]C#N | 341 ± 23 | 297 ± 20 | 260 ± 18 | 230 ± 16 | 206 ± 14 | 185 ± 13 | 391 ± 27 | 
C1CCCCCC1 [cycloheptane] + C[n+]1ccn(CCCO)c1.N#CN=C=[N-] | 128 ± 9 | 119 ± 8 | 111 ± 8 | 104 ± 7 | 97.8 ± 6.7 |  | 139 ± 10 | 152 ± 10
C1CCCCC1 [cyclohexane] + C[N+]1(CCCO)CCOCC1.N#C[N-]C#N | 319 ± 22 | 260 ± 18 | 219 ± 15 | 184 ± 13 | 159 ± 11 | 138 ± 9 | 381 ± 26 | 
C1CCCCC1 [cyclohexane] + C[n+]1ccn(CCCO)c1.N#CN=C=[N-] | 97.9 ± 6.7 | 91.1 ± 6.2 | 85.5 ± 5.9 | 80.4 ± 5.5 | 76.6 ± 5.2 |  | 105 ± 7 | 115 ± 8
C1=CCCCC1 [cyclohexene] + C[N+]1(CCCO)CCOCC1.N#C[N-]C#N | 79.1 ± 5.4 | 65.3 ± 4.5 |  |  |  |  | 97 ± 6.7 | 121 ± 8
C1=CCCCC1 [cyclohexene] + C[n+]1ccn(CCCO)c1.N#CN=C=[N-] | 36.1 ± 2.5 | 34.5 ± 2.4 | 32.7 ± 2.2 | 31.4 ± 2.1 | 30 ± 2.1 |  | 38.2 ± 2.6 | 40.7 ± 2.8
C1CCCCCCC1 [cyclooctane] + C[N+]1(CCCO)CCOCC1.N#C[N-]C#N | 478 ± 33 | 408 ± 28 | 345 ± 24 | 298 ± 20 | 260 ± 18 | 229 ± 16 | 571 ± 39 | 
C1CCCCCCC1 [cyclooctane] + C[n+]1ccn(CCCO)c1.N#CN=C=[N-] | 181 ± 12 | 165 ± 11 | 153 ± 11 | 143 ± 10 | 137 ± 9 |  | 198 ± 14 | 216 ± 15
C1CCCC1 [cyclopentane] + C[n+]1ccn(CCCO)c1.N#CN=C=[N-] | 58.7 ± 4 | 54.5 ± 3.7 |  |  |  |  | 63.7 ± 4.4 | 69.3 ± 4.7
CCCCCCCCCC [decane] + C[N+]1(CCCO)CCOCC1.N#C[N-]C#N | 2220 ± 150 | 1980 ± 140 | 1770 ± 120 | 1590 ± 110 | 1430 ± 99 | 1310 ± 90 | 2530 ± 180 | 
CCCCCCCCCC [decane] + C[n+]1ccn(CCCO)c1.N#CN=C=[N-] | 1530 ± 110 | 1380 ± 95 | 1270 ± 88 | 1170 ± 81 | 1070 ± 74 |  | 1680 ± 120 | 1870 ± 130
CCOCC [diethyl ether] + C[N+]1(CCCO)CCOCC1.N#C[N-]C#N | 44.7 ± 3.1 | 39.2 ± 2.7 | 35 ± 2.4 |  |  |  | 51.3 ± 3.5 | 59.3 ± 4.1
CCOCC [diethyl ether] + C[n+]1ccn(CCCO)c1.N#CN=C=[N-] | 20.3 ± 1.4 | 20.3 ± 1.4 | 20.5 ± 1.4 | 20.6 ± 1.4 | 20.7 ± 1.4 | 20.8 ± 1.4 |  | 
CC(C)OC(C)C [diisopropyl ether] + C[N+]1(CCCO)CCOCC1.N#C[N-]C#N | 244 ± 17 |  |  |  |  |  | 306 ± 21 | 393 ± 27
CC(C)OC(C)C [diisopropyl ether] + C[n+]1ccn(CCCO)c1.N#CN=C=[N-] | 96 ± 6.6 | 92.7 ± 6.4 | 90.6 ± 6.2 | 88 ± 6 | 86.5 ± 5.9 | 84.3 ± 5.8 |  | 
CCCOCCC [dipropyl ether] + C[N+]1(CCCO)CCOCC1.N#C[N-]C#N | 202 ± 14 | 189 ± 13 | 176 ± 12 | 166 ± 11 | 157 ± 11 | 148 ± 10 | 218 ± 15 | 
CCCOCCC [dipropyl ether] + C[n+]1ccn(CCCO)c1.N#CN=C=[N-] | 82.3 ± 5.6 | 79.9 ± 5.5 | 77.7 ± 5.3 | 75.8 ± 5.2 | 74.4 ± 5.1 | 72.5 ± 5 |  | 
CCO [ethanol] + C[N+]1(CCCO)CCOCC1.N#C[N-]C#N | 1.71 ± 0.11 | 1.66 ± 0.11 | 1.61 ± 0.11 | 1.57 ± 0.1 | 1.54 ± 0.1 | 1.51 ± 0.1 |  | 
CCO [ethanol] + C[n+]1ccn(CCCO)c1.N#CN=C=[N-] | 1.17 ± 0.07 | 1.17 ± 0.07 | 1.18 ± 0.08 | 1.19 ± 0.08 | 1.2 ± 0.08 | 1.2 ± 0.08 |  | 
CCOC(C)=O [ethyl acetate] + C[N+]1(CCCO)CCOCC1.N#C[N-]C#N | 9.71 ± 0.66 | 9.78 ± 0.67 | 9.83 ± 0.67 | 9.91 ± 0.68 | 10 ± 0.7 | 10.1 ± 0.7 |  | 
